Test results taken from US8367620B2, “Peptidic growth hormone secretagogues analog compounds and preparations thereof” (Centro de Ingenieria Genetica y Biotecnologia, priority 2006, dated 2013).

These sequences were tested on Post-larvae of Litopenaeus vanamei (assay: Growth stimulation in shrimps by dietary supplementation). Conditions: compound at 1% in post-larvae crustacean diet.
Type: in vivo
Experimental: The peptidic GHS analogs were included at 1% in a post-larvae crustacean diet. Post-larvae of Litopenaeus vanamei were fed with the aforementioned diet in parallel with a control group with 1% BSA addition. The effect was measured with an optical micrometer and weighing the animals in a 0.1 mg precision scale.

Sequence | Size Inc. (%), control group growing = 100% [%]
ALDFKPNIP [Compound A225, L-amino acid peptide with internal side-chain cycle, SEC; ID NO: 5] | 130.0
GDAGAKLLSSR [Compound A234] | 138.6
GEGYKLDERSQ [Compound A236, L-amino acid peptide with internal side-chain cycle, SEC; ID NO: 16] | 137.0
GGEAGKLCPPRY [Compound A237, L-amino acid peptide with internal side-chain cycle, SEC; ID NO: 17] | 132.0
GGGKFWDIPHH [Compound A231, L-amino acid peptide with internal side-chain cycle, SEC; ID NO: 11] | 140.1
GKFDSPEHQ [Compound A230] | 140.0

Each sequence was assayed on Litopenaeus vanamei post-larvae (assay: Growth of shrimp post-larvae fed Artemia-bioencapsulated compounds). Conditions: Artemia bioencapsulated (10 mh/L, one hour), fed four times a day for one month.
Type: in vivo
Experimental: The peptidic GHS analogs were bioencapsulated in Artemia to be fed to Litopenaeus vanamei post-larvae. For the encapsulation the compounds were added in a 10 mh/L left for an hour, harvested and washed. The animals were fed four times a day for one month while the control group was fed with BSA encapsulated Artemia The effect was measured with an optical micrometer and weighing the animals in a 0.1 mg precision scale.

Sequence | Size Inc. (%), control group growing = 100% [%]
ALDFKPNIP [Compound A225, L-amino acid peptide with internal side-chain cycle, SEC; ID NO: 5] | 130.0
GDAGAKLLSSR [Compound A234] | 135.0
GEGYKLDERSQ [Compound A236, L-amino acid peptide with internal side-chain cycle, SEC; ID NO: 16] | 138.0
GGEAGKLCPPRY [Compound A237, L-amino acid peptide with internal side-chain cycle, SEC; ID NO: 17] | 136.0
GGGKFWDIPHH [Compound A231, L-amino acid peptide with internal side-chain cycle, SEC; ID NO: 11] | 140.2
GKFDSPEHQ [Compound A230] | 140.0

The sequences below were run on tilapias (assay: Growth acceleration on juvenile tilapias treated intraperitoneally). Conditions: juvenile tilapia, ip 0.1 μg/g twice a week, three weeks.
Type: in vivo
Experimental: The compounds were dissolved in a sodium phosphate (PBS) buffer solution and injected twice a week, during three weeks at 0.1 μg/g of humid fish weight (gbw). Compounds were applied individually to a group of 10 male tilapias with an average weight of 60.41±10.36 g and a control group with an average weight of 60.58±19.67 g was receiving PBS only as a control, measuring the average weight every week, all animals in the experiment were labelled with microchips (Stoelting Co. Wood Dale, USA.). for proper identification.

Sequence | Weight Inc. (%), control group growing = 100% [%]
ALDFKPNIP [Compound A225, L-amino acid peptide with internal side-chain cycle, SEC; ID NO: 5] | 120.0
GDAGAKLLSSR [Compound A234] | 110.6
GEGYKLDERSQ [Compound A236, L-amino acid peptide with internal side-chain cycle, SEC; ID NO: 16] | 99.0
GGEAGKLCPPRY [Compound A237, L-amino acid peptide with internal side-chain cycle, SEC; ID NO: 17] | 100.0
GGGKFWDIPHH [Compound A231, L-amino acid peptide with internal side-chain cycle, SEC; ID NO: 11] | 150.2
GKFDSPEHQ [Compound A230] | 158.0

Each sequence was assayed on lysozyme (assay: Lysozyme levels in tilapia larvae treated by immersion). Conditions: immersion 100 μg/L.
Type: in vivo, Oreochromis sp.
Experimental: (§1) Growth stimulation experiments on tilapia Oreochromis sp. larvae were performed evaluating groups of 100 larvae with 0.01 g average, using the peptidic GHS analogs, in a 100 μg/L concentration, twice a week using an immersion time of one hour.
During this experiment lysozyme levels were also monitored and an increase of this immunity marker was obtained in the treated animals as shown in table 8.

Sequence | Lysozyme levels of the treated animals relative to the control group
ALDFKPNIP [Compound A225, L-amino acid peptide with internal side-chain cycle, SEC; ID NO: 5] | 1.43
GDAGAKLLSSR [Compound A234] | 2.77
GEGYKLDERSQ [Compound A236, L-amino acid peptide with internal side-chain cycle, SEC; ID NO: 16] | 1.42
GGEAGKLCPPRY [Compound A237, L-amino acid peptide with internal side-chain cycle, SEC; ID NO: 17] | 1.01
GGGKFWDIPHH [Compound A231, L-amino acid peptide with internal side-chain cycle, SEC; ID NO: 11] | 1.89
GKFDSPEHQ [Compound A230] | 1.33

What follows are sequences tested on tilapia Oreochromis sp. larvae (assay: Growth stimulation of tilapia larvae by immersion). Conditions: immersion 100 μg/L, one hour twice a week, three weeks.
Type: in vivo
Experimental: as §1

Sequence | Weight Inc. (%), control group growing = 100% [%]
ALDFKPNIP [Compound A225, L-amino acid peptide with internal side-chain cycle, SEC; ID NO: 5] | 98.0
GDAGAKLLSSR [Compound A234] | 120.6
GEGYKLDERSQ [Compound A236, L-amino acid peptide with internal side-chain cycle, SEC; ID NO: 16] | 105.0
GGEAGKLCPPRY [Compound A237, L-amino acid peptide with internal side-chain cycle, SEC; ID NO: 17] | 109.9
GGGKFWDIPHH [Compound A231, L-amino acid peptide with internal side-chain cycle, SEC; ID NO: 11] | 151.0
GKFDSPEHQ [Compound A230] | 150.0

What follows are sequences tested on IGF-I mRNA (assay: IGF-I mRNA in liver and GH level of intraperitoneally injected tilapias). Conditions: liver of intraperitoneally injected tilapias.
Type: in vivo, tilapia
Experimental: IGF-I mRNa was determined in the liver of intraperitoneally injected tilapias monitoring also the GH level time course, showing the peptidic GHS analog compounds as able to stimulate in fish the GH levels in the bloodstream and at incrementing the IGF-I mRNA levels after the injection of the compounds as shown in table 4.

Sequence | Normalized IGF-I mRNA levels to a non related synthetic peptide control group
ALDFKPNIP [Compound A225, L-amino acid peptide with internal side-chain cycle, SEC; ID NO: 5] | 1.38
GDAGAKLLSSR [Compound A234] | 1.17
GEGYKLDERSQ [Compound A236, L-amino acid peptide with internal side-chain cycle, SEC; ID NO: 16] | 1.13
GGEAGKLCPPRY [Compound A237, L-amino acid peptide with internal side-chain cycle, SEC; ID NO: 17] | 1.201
GGGKFWDIPHH [Compound A231, L-amino acid peptide with internal side-chain cycle, SEC; ID NO: 11] | 1.39
GKFDSPEHQ [Compound A230] | 1.48

The sequences below were run on PC12 cells (assay: not given). Conditions: differentiated PC12 cells, 72 h incubation, MTT; read-out: IC50 during the NGF deprivation induced neuronal death.
Type: cell-based
Experimental: PC12 cells were stored in 75 cm^2 culture flasks on DMEM containing 5% bovine foetal serum and 10% horse serum, with 50 μg/ml gentamicin. Cells were incubated at 37° C. in 5% CO2. To induce differentiation cells were transferred at a density of 1×10^4 to polylysine covered 96 well plates in NGF supplemented DMEM media for 7 days, with medium replacement every 2-3 days. After differentiation cells were incubated with peptidic GHS analog compounds, at different concentrations for 72 h. Cell survival and proliferation was determined using the Promega non-radioactive cytotoxicity proliferation assay, Cell Titer 96, based in the conversion of 3-(4,5-dimethylthiazole-2-yl)-2,5-diphenyltetrazolium bromide (MTT) in to a spectrophotometrically detectable product. After deprivation of NGF medium is removed and 15 μl of the DMEM dissolved dye is added, after 4 hours of 37° C. incubation 100 μl of the stopping solution is added and absorbance is measured at 570 nm

Sequence | IC50 [µM]
ALDFKPNIP [Compound A225, L-amino acid peptide with internal side-chain cycle, SEC; ID NO: 5] | 4.07
GDAGAKLLSSR [Compound A234] | 5.86
GEGYKLDERSQ [Compound A236, L-amino acid peptide with internal side-chain cycle, SEC; ID NO: 16] | 3
GGEAGKLCPPRY [Compound A237, L-amino acid peptide with internal side-chain cycle, SEC; ID NO: 17] | 3.33
GGGKFWDIPHH [Compound A231, L-amino acid peptide with internal side-chain cycle, SEC; ID NO: 11] | 4
GKFDSPEHQ [Compound A230] | 4.06

What follows are sequences tested on Litopenaeus vanamei (assay: Growing of shrimp larvae by dipping in solution of the compounds). Conditions: four dips of one hour every three days, 0.1 g/L.
Type: in vivo
Experimental: Shrimp larvae were subjected two four dips, for one hour every three days with different peptidic GHS analogs at 0.1 g/L. The control group was subjected to the same frequency of dipping with 1 mg/L BSA.

Sequence | Size Inc. (%), control group growing = 100% [%] | Weight Inc. (%), control group growing = 100% [%]
ALDFKPNIP [Compound A225, L-amino acid peptide with internal side-chain cycle, SEC; ID NO: 5] | 112.6 | 121.0
GDAGAKLLSSR [Compound A234] | 114.2 | 123.6
GEGYKLDERSQ [Compound A236, L-amino acid peptide with internal side-chain cycle, SEC; ID NO: 16] | 112.0 | 121.0
GGEAGKLCPPRY [Compound A237, L-amino acid peptide with internal side-chain cycle, SEC; ID NO: 17] | 116.2 | 127.0
GGGKFWDIPHH [Compound A231, L-amino acid peptide with internal side-chain cycle, SEC; ID NO: 11] | 123.0 | 130.0
GKFDSPEHQ [Compound A230] | 123.6 | 150.0

These sequences were tested on primary cultures of granular cerebellum cells (assay: not given). Conditions: 500 μM hydrogen peroxide, rat cerebellum granular cells; read-out: IC50 during the induced neuronal damage by Hydrogen Peroxide addition to a primary culture of neurons.
Type: cell-based, Wistar rats
Experimental: Primary cultures of granular cerebellum cells were obtained from 7-9 days Wistar rats. After a rapid dissection, rat cerebellums were submerged in a cold solution and meningeal membranes were removed, each organ was transferred to a 2-3 ml fresh medium solution and finely sliced. Cells were dissociated using a Pasteur pipette and filtered through a nylon […] membrane (Falcon, Franklin Lakes, N.J.). The number of viable cells was determined by cell counting in a hematocytometer with tripan blue as a marker. Cells were cultured on polylysine covered 96 well plates at a density of 6250 cells in […] final volume. Cultures were kept at 37° C. in 5%. CO2 after 24 h, 10 μM of cytosine arabinofuranose (AraC; Sigma) was added to inhibit the proliferation of non-neuronal cells. The capacity of neural damage prevention was tested adding 500 μM hydrogen peroxide in different concentrations of peptidic GHS analog compounds, Cell survival was determined using the Promega non-radioactive cytotoxicity proliferation assay, Cell Titer 96 (Promega).

Sequence | IC50 [µM]
ALDFKPNIP [Compound A225, L-amino acid peptide with internal side-chain cycle, SEC; ID NO: 5] | 3.99
GDAGAKLLSSR [Compound A234] | 3.72
GEGYKLDERSQ [Compound A236, L-amino acid peptide with internal side-chain cycle, SEC; ID NO: 16] | 3.33
GGEAGKLCPPRY [Compound A237, L-amino acid peptide with internal side-chain cycle, SEC; ID NO: 17] | 2.51
GGGKFWDIPHH [Compound A231, L-amino acid peptide with internal side-chain cycle, SEC; ID NO: 11] | 3.46
GKFDSPEHQ [Compound A230] | 3.81
